pIC50: −log10 of the molar value.
Legend:
[1] = test system: T24 cell line; assay: Cytotoxicity MTS assay, T24 cell line; format: cell-based; conditions: for OD490 Mean / OD490 Well 1 / OD490 Well 2 / OD490 Well 3: T24 cell line
Method: (§1) The positive compounds (IC50 < 100 μM) obtained from the primary Eg5 motor protein ATPase assay were tested for antiproliferative activity in vitro against Caco-2 cell line, Hela cell line, L929 cell line and T24 cell line by performing MTS assay. Cells were introduced into 96-well plates at a density of 1000 cells per well. After 24 h incubation, the cells were exposed with compounds at final concentrations ranging from 0.5 to 100 µM for 24 h. DMSO was used at a final concentration of 0.025% as blank control, monastrol was used as the positive control. Then 20 µL (CellTiter 96® AQueous One Solution Promega, Madison, WI, USA) reagent was added in each well. After 2 h at 37 °C in a 80% humidified, 5% CO2 atmosphere, the absorbance at 490 nm was recorded using a microplate reader (BIO-RAD iMark^TM). The results were obtained in three independent duplicate experiments. The primary data were shown in Supplementary Materials Tables S4–S7. The IC50 values for these compounds were calculated from a non-linear regression graph plotted between the percentage of cell viability and concentration with SPSS17.0 software.

[2] = test system: Hela cell line; assay: Cytotoxicity MTS assay, Hela cell line; format: cell-based; conditions: for OD490 value, Mean / OD490 value, Well 1 / OD490 value, Well 2 / OD490 value, Well 3: Hela cell line, MTS
Method: as §1

Structure (SMILES): CCOC(=O)c1c(C2NC(=O)NC(C)=C2C(=O)Nc2ccccc2C)[nH]c(C(=O)OC)c1C (centres unmarked) [D2]
- pIC50 ([1]; MTS assay, 24 h exposure): < 3.82
- OD490 Mean ([1]; 0.5μM, first assay): 1.8524
- OD490 Well 1 ([1]; 0.5μM, first assay): 1.8720
- OD490 Well 2 ([1]; 0.5μM, first assay): 1.7367
- OD490 Well 3 ([1]; 0.5μM, first assay): 1.9486
- OD490 Mean ([1]; 0.5μM, second assay): 1.7337
- OD490 Well 1 ([1]; 0.5μM, second assay): 1.7425
- OD490 Well 2 ([1]; 0.5μM, second assay): 1.7320
- OD490 Well 3 ([1]; 0.5μM, second assay): 1.7265
- OD490 Mean ([1]; 1μM, first assay): 1.8992
- OD490 Well 1 ([1]; 1μM, first assay): 1.8529
- OD490 Well 2 ([1]; 1μM, first assay): 2.1141
- OD490 Well 3 ([1]; 1μM, first assay): 1.7306
- OD490 Mean ([1]; 1μM, second assay): 1.7313
- OD490 Well 1 ([1]; 1μM, second assay): 1.6985
- OD490 Well 2 ([1]; 1μM, second assay): 1.7321
- OD490 Well 3 ([1]; 1μM, second assay): 1.7632
- OD490 Mean ([1]; 10μM, first assay): 1.7422
- OD490 Well 1 ([1]; 10μM, first assay): 1.5585
- OD490 Well 2 ([1]; 10μM, first assay): 1.7096
- OD490 Well 3 ([1]; 10μM, first assay): 1.9584
- OD490 Mean ([1]; 10μM, second assay): 1.7005
- OD490 Well 1 ([1]; 10μM, second assay): 1.6985
- OD490 Well 2 ([1]; 10μM, second assay): 1.7032
- OD490 Well 3 ([1]; 10μM, second assay): 1.6999
- OD490 Mean ([1]; 25μM, first assay): 1.5770
- OD490 Well 1 ([1]; 25μM, first assay): 1.7779
- OD490 Well 2 ([1]; 25μM, first assay): 1.7471
- OD490 Well 3 ([1]; 25μM, first assay): 1.2060
- OD490 Mean ([1]; 25μM, second assay): 1.7524
- OD490 Well 1 ([1]; 25μM, second assay): 1.7747
- OD490 Well 2 ([1]; 25μM, second assay): 1.7842
- OD490 Well 3 ([1]; 25μM, second assay): 1.6982
- OD490 Mean ([1]; 50μM, first assay): 1.5326
- OD490 Well 1 ([1]; 50μM, first assay): 1.7713
- OD490 Well 2 ([1]; 50μM, first assay): 1.4256
- OD490 Well 3 ([1]; 50μM, first assay): 1.4009
- OD490 Mean ([1]; 50μM, second assay): 1.6946
- OD490 Well 1 ([1]; 50μM, second assay): 1.6524
- OD490 Well 2 ([1]; 50μM, second assay): 1.6895
- OD490 Well 3 ([1]; 50μM, second assay): 1.7420
- OD490 Mean ([1]; 100μM, first assay): 1.5388
- OD490 Well 1 ([1]; 100μM, first assay): 1.4456
- OD490 Well 2 ([1]; 100μM, first assay): 1.6062
- OD490 Well 3 ([1]; 100μM, first assay): 1.5646
- OD490 Mean ([1]; 100μM, second assay): 1.4712
- OD490 Well 1 ([1]; 100μM, second assay): 1.4274
- OD490 Well 2 ([1]; 100μM, second assay): 1.5020
- OD490 Well 3 ([1]; 100μM, second assay): 1.4842
- OD490 value, Mean ([2]; 0.5μM, first assay): 2.6241
- OD490 value, Well 1 ([2]; 0.5μM, first assay): 2.6512
- OD490 value, Well 2 ([2]; 0.5μM, first assay): 2.7230
- OD490 value, Well 3 ([2]; 0.5μM, first assay): 2.4982
- OD490 value, Mean ([2]; 0.5μM, second assay): 2.6365
- OD490 value, Well 1 ([2]; 0.5μM, second assay): 2.7038
- OD490 value, Well 2 ([2]; 0.5μM, second assay): 2.6687
- OD490 value, Well 3 ([2]; 0.5μM, second assay): 2.5371
- OD490 value, Mean ([2]; 0.5μM, third assay): 2.6753
- OD490 value, Well 1 ([2]; 0.5μM, third assay): 2.5959
- OD490 value, Well 2 ([2]; 0.5μM, third assay): 2.8645
- OD490 value, Well 3 ([2]; 0.5μM, third assay): 2.5656
- OD490 value, Mean ([2]; 1μM, first assay): 2.5821
- OD490 value, Well 1 ([2]; 1μM, first assay): 2.5465
- OD490 value, Well 2 ([2]; 1μM, first assay): 2.6265
- OD490 value, Well 3 ([2]; 1μM, first assay): 2.5734
- OD490 value, Mean ([2]; 1μM, second assay): 2.6167
- OD490 value, Well 1 ([2]; 1μM, second assay): 2.6874
- OD490 value, Well 2 ([2]; 1μM, second assay): 2.5987
- OD490 value, Well 3 ([2]; 1μM, second assay): 2.5641
- OD490 value, Mean ([2]; 1μM, third assay): 2.6782
- OD490 value, Well 1 ([2]; 1μM, third assay): 2.5645
- OD490 value, Well 2 ([2]; 1μM, third assay): 2.7848
- OD490 value, Well 3 ([2]; 1μM, third assay): 2.6854
- OD490 value, Mean ([2]; 10μM, first assay): 2.6025
- OD490 value, Well 1 ([2]; 10μM, first assay): 2.4718
- OD490 value, Well 2 ([2]; 10μM, first assay): 2.7280
- OD490 value, Well 3 ([2]; 10μM, first assay): 2.6077
- OD490 value, Mean ([2]; 10μM, second assay): 2.7525
- OD490 value, Well 1 ([2]; 10μM, second assay): 2.8301
- OD490 value, Well 2 ([2]; 10μM, second assay): 2.6874
- OD490 value, Well 3 ([2]; 10μM, second assay): 2.7401
- OD490 value, Mean ([2]; 10μM, third assay): 2.6780
- OD490 value, Well 1 ([2]; 10μM, third assay): 2.5659
- OD490 value, Well 2 ([2]; 10μM, third assay): 2.6898
- OD490 value, Well 3 ([2]; 10μM, third assay): 2.7784
- OD490 value, Mean ([2]; 25μM, first assay): 2.6414
- OD490 value, Well 1 ([2]; 25μM, first assay): 2.4669
- OD490 value, Well 2 ([2]; 25μM, first assay): 2.6653
- OD490 value, Well 3 ([2]; 25μM, first assay): 2.7919
- OD490 value, Mean ([2]; 25μM, second assay): 2.6474
- OD490 value, Well 1 ([2]; 25μM, second assay): 2.8835
- OD490 value, Well 2 ([2]; 25μM, second assay): 2.4699
- OD490 value, Well 3 ([2]; 25μM, second assay): 2.5888
- OD490 value, Mean ([2]; 25μM, third assay): 2.6061
- OD490 value, Well 1 ([2]; 25μM, third assay): 2.5656
- OD490 value, Well 2 ([2]; 25μM, third assay): 2.6632
- OD490 value, Well 3 ([2]; 25μM, third assay): 2.5894
- OD490 value, Mean ([2]; 50μM, first assay): 2.6499
- OD490 value, Well 1 ([2]; 50μM, first assay): 2.7237
- OD490 value, Well 2 ([2]; 50μM, first assay): 2.5642
- OD490 value, Well 3 ([2]; 50μM, first assay): 2.6617
- OD490 value, Mean ([2]; 50μM, second assay): 2.5211
- OD490 value, Well 1 ([2]; 50μM, second assay): 2.6654
- OD490 value, Well 2 ([2]; 50μM, second assay): 2.5656
- OD490 value, Well 3 ([2]; 50μM, second assay): 2.3324
- OD490 value, Mean ([2]; 50μM, third assay): 2.6330
- OD490 value, Well 1 ([2]; 50μM, third assay): 2.6547
- OD490 value, Well 2 ([2]; 50μM, third assay): 2.5655
- OD490 value, Well 3 ([2]; 50μM, third assay): 2.6788
- OD490 value, Mean ([2]; 100μM, first assay): 1.9886
- OD490 value, Well 1 ([2]; 100μM, first assay): 2.0164
- OD490 value, Well 2 ([2]; 100μM, first assay): 1.9699
- OD490 value, Well 3 ([2]; 100μM, first assay): 1.9794
- OD490 value, Mean ([2]; 100μM, second assay): 2.0267
- OD490 value, Well 1 ([2]; 100μM, second assay): 1.8863
- OD490 value, Well 2 ([2]; 100μM, second assay): 1.9925
- OD490 value, Well 3 ([2]; 100μM, second assay): 2.2014
- OD490 value, Mean ([2]; 100μM, third assay): 2.0032
- OD490 value, Well 1 ([2]; 100μM, third assay): 1.9987
- OD490 value, Well 2 ([2]; 100μM, third assay): 2.0123
- OD490 value, Well 3 ([2]; 100μM, third assay): 1.9986
- pIC50 ([2]; MTS assay, 24 h exposure): < 3.82

Reference: paper PMC8037182, “Solvothermal Synthesis of Multiple Dihydropyrimidinones at a Time as Inhibitors of Eg5” (Molecules, 2021)
